Patent US6355799B1, “Substituted benzene compounds, process for their preparation, and herbicidal and defoliant compositions containing them” (ISK Americas Incorporated, priority 1997, dated 2002)

Tests used:
Type in all cases: in vivo
[1] = test system: velvetleaf (Abutilon theophrasti, ABUTH); test: Pre-emerge test, greenhouse herbicide activity screening; settings: pre-emerge, 14 days after application, rating scale 0-100
Outline: (§1)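 Herbicidal damage is scored 0 (none) to 100 (complete plant death) two weeks after a simulated field spray. Rates span 15–1000 g ai/ha, delivered in acetone at 187 l/ha. For post-emergence treatments, plants have 2–3 leaves and the spray carries 0.25% v/v non-ionic surfactant.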

[2] = test system: johnsongrass (Sorghum halepense, SORHA); test: as above; settings: pre-emerge, 14 days after application, rating scale 0-100
Outline: as §1

[3] = test system: lambsquarters (Chenopodium album, CHEAL); test: as above; settings: pre-emerge, 14 days after application, rating scale 0-100
Outline: as §1

[4] = test system: green foxtail (Setaria viridis, SETVI); test: as above; settings: pre-emerge, 14 days after application, rating scale 0-100
Outline: as §1

[5] = test system: ivyleaf morningglory (Ipomoea hederacea, IPOHE); test: as above; settings: pre-emerge, 14 days after application, rating scale 0-100
Outline: as §1

[6] = test system: sicklepod (Cassia obtusifolia, CASOB); test: as above; settings: pre-emerge, 14 days after application, rating scale 0-100
Outline: as §1

[7] = test system: barnyardgrass (Echinochloa crus-galli, ECHCG); test: as above; settings: pre-emerge, 14 days after application, rating scale 0-100
Outline: as §1

[8] = test system: large crabgrass (Digitaria sanguinalis, DIGSA); test: as above; settings: pre-emerge, 14 days after application, rating scale 0-100
Outline: as §1

[9] = test system: upland rice (Oryza sp., var. Tebonnet, RICE); test: Pre-emerge test, crop safety; settings: pre-emerge, 14 days after application, rating scale 0-100
Outline: (§2)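 Sandy loam pots; pre-emerge: sown 1 d pre-spray, surface-watered after, then bottom-watered. Post-emerge: sown 8–21 d before, 2–3 leaf stage, + 0.25% v/v NIS, bottom-watered. Acetone, 187 l/ha track spray, 15–1000 g ai/ha. 0–100 injury score, day 14.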

[10] = test system: field corn (Zea mays L., var. Dekalb 535, CORN); test: Pre-emerge test, crop safety; settings: pre-emerge, 14 days after application, rating scale 0-100
Outline: as §2

[11] = test system: redroot pigweed (Amaranthus retroflexus, AMARE); test: Pre-emerge test, greenhouse herbicide activity screening; settings: pre-emerge, 14 days after application, rating scale 0-100
Outline: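 Rating: 0–100 visual injury, 14 DAA. Application: acetone, 187 l/ha, 15–1000 g ai/ha, flat-fan track sprayer with nozzle 40–45 cm above soil or canopy. Post-emerge runs used 0.25% v/v surfactant on 2–3 leaf plants.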

[12] = test system: upland rice (Oryza sp., var. Tebonnet, RICE); test: Post-emerge test, crop safety; settings: post-emerge, 14 days after application, rating scale 0-100
Outline: as §1

[13] = test system: field corn (Zea mays L., var. Dekalb 535, CORN); test: Post-emerge test, crop safety; settings: post-emerge, 14 days after application, rating scale 0-100
Outline: as §1

[14] = test system: velvetleaf (Abutilon theophrasti, ABUTH); test: Post-emerge test, greenhouse herbicide activity screening; settings: post-emerge, 14 days after application, rating scale 0-100
Outline: as §1

[15] = test system: johnsongrass (Sorghum halepense, SORHA); test: as above; settings: post-emerge, 14 days after application, rating scale 0-100
Outline: as §1

[16] = test system: lambsquarters (Chenopodium album, CHEAL); test: as above; settings: post-emerge, 14 days after application, rating scale 0-100
Outline: as §1

[17] = test system: green foxtail (Setaria viridis, SETVI); test: as above; settings: post-emerge, 14 days after application, rating scale 0-100
Outline: as §1

[18] = test system: redroot pigweed (Amaranthus retroflexus, AMARE); test: as above; settings: post-emerge, 14 days after application
Outline: as §1

[19] = test system: ivyleaf morningglory (Ipomoea hederacea, IPOHE); test: as above; settings: post-emerge, 14 days after application, rating scale 0-100
Outline: as §1

[20] = test system: sicklepod (Cassia obtusifolia, CASOB); test: as above; settings: post-emerge, 14 days after application, rating scale 0-100
Outline: as §1

[21] = test system: barnyardgrass (Echinochloa crus-galli, ECHCG); test: as above; settings: post-emerge, 14 days after application, rating scale 0-100
Outline: as §1

[22] = test system: large crabgrass (Digitaria sanguinalis, DIGSA); test: as above; settings: post-emerge, 14 days after application, rating scale 0-100
Outline: as §1

`COc1c(Cl)cc(F)c(-n2c(=O)cc(C(F)(F)F)n(C)c2=O)c1SCCO` [17-5] was tested, and the “phytotoxicity rating ABUTH” value ([1]; 63 g ai/ha) was 60, the “phytotoxicity rating ABUTH” value ([1]; 250 g ai/ha) was 100 and the “phytotoxicity rating SORHA” value ([2]; 63 g ai/ha) was 0. The “phytotoxicity rating SORHA” value ([2]; 250 g ai/ha) was 20, the “phytotoxicity rating CHEAL” value ([3]; 63 g ai/ha) was 90 and the “phytotoxicity rating CHEAL” value ([3]; 250 g ai/ha) was 100. The “phytotoxicity rating SETVI” value ([4]; 63 g ai/ha) was 0, the “phytotoxicity rating SETVI” value ([4]; 250 g ai/ha) was 50 and the “phytotoxicity rating IPOHE” value ([5]; 63 g ai/ha) was 30. The “phytotoxicity rating IPOHE” value ([5]; 250 g ai/ha) was 35, the “phytotoxicity rating CASOB” value ([6]; 63 g ai/ha) was 0 and the “phytotoxicity rating CASOB” value ([6]; 250 g ai/ha) was 30. The “phytotoxicity rating ECHCG” value ([7]; 63 g ai/ha) was 0, the “phytotoxicity rating ECHCG” value ([7]; 250 g ai/ha) was 0 and the “phytotoxicity rating DIGSA” value ([8]; 63 g ai/ha) was 0. The “phytotoxicity rating DIGSA” value ([8]; 250 g ai/ha) was 60, the “phytotoxicity rating RICE” value ([9]; 63 g ai/ha) was 0 and the “phytotoxicity rating RICE” value ([9]; 250 g ai/ha) was 10. The “phytotoxicity rating CORN” value ([10]; 63 g ai/ha) was 0, the “phytotoxicity rating CORN” value ([10]; 250 g ai/ha) was 0 and the “phytotoxicity rating AMARE” value ([11]; 63 g ai/ha) was 80. The “phytotoxicity rating AMARE” value ([11]; 250 g ai/ha) was 100, the “Post-emerge Herbicidal Activity RICE (crop damage rating)” value ([12]; 63 g ai/ha) was 0 and the “Post-emerge Herbicidal Activity RICE (crop damage rating)” value ([12]; 250 g ai/ha) was 0. The “Post-emerge Herbicidal Activity CORN (crop damage rating)” value ([13]; 63 g ai/ha) was 0, the “Post-emerge Herbicidal Activity CORN (crop damage rating)” value ([13]; 250 g ai/ha) was 10 and the “Post-emerge Herbicidal Activity ABUTH (phytotoxicity rating)” value ([14]; 63 g ai/ha) was 50. For the same compound, the “Post-emerge Herbicidal Activity ABUTH (phytotoxicity rating)” value ([14]; 250 g ai/ha) was 80, the “Post-emerge Herbicidal Activity SORHA (phytotoxicity rating)” value ([15]; 63 g ai/ha) was 0 and the “Post-emerge Herbicidal Activity SORHA (phytotoxicity rating)” value ([15]; 250 g ai/ha) was 0. For the same compound, the “Post-emerge Herbicidal Activity CHEAL (phytotoxicity rating)” value ([16]; 63 g ai/ha) was 40, the “Post-emerge Herbicidal Activity CHEAL (phytotoxicity rating)” value ([16]; 250 g ai/ha) was 80 and the “Post-emerge Herbicidal Activity SETVI (phytotoxicity rating)” value ([17]; 63 g ai/ha) was 0. For the same compound, the “Post-emerge Herbicidal Activity SETVI (phytotoxicity rating)” value ([17]; 250 g ai/ha) was 0, the “Post-emerge Herbicidal Activity AMARE (phytotoxicity rating)” value ([18]; 63 g ai/ha, rating scale 0-100 (0 no damage, 100 complete death)) was 10 and the “Post-emerge Herbicidal Activity AMARE (phytotoxicity rating)” value ([18]; 250 g ai/ha, rating scale 0-100) was 40. The “Post-emerge Herbicidal Activity IPOHE (phytotoxicity rating)” value ([19]; 63 g ai/ha) was 30, the “Post-emerge Herbicidal Activity IPOHE (phytotoxicity rating)” value ([19]; 250 g ai/ha) was 70 and the “Post-emerge Herbicidal Activity CASOB (phytotoxicity rating)” value ([20]; 63 g ai/ha) was 10. For the same compound, the “Post-emerge Herbicidal Activity CASOB (phytotoxicity rating)” value ([20]; 250 g ai/ha) was 20, the “Post-emerge Herbicidal Activity ECHCG (phytotoxicity rating)” value ([21]; 63 g ai/ha) was 0 and the “Post-emerge Herbicidal Activity ECHCG (phytotoxicity rating)” value ([21]; 250 g ai/ha) was 0. For the same compound, the “Post-emerge Herbicidal Activity DIGSA (phytotoxicity rating)” value ([22]; 63 g ai/ha) was 0 and the “Post-emerge Herbicidal Activity DIGSA (phytotoxicity rating)” value ([22]; 250 g ai/ha) was 0.
